Data published in patent publication US11338004B2, “Composition for preventing or treating cranial nerve disease comprising fomes fomentarius extract, fraction thereof, or compound isolated therefrom as active ingredient” (priority 2015, dated 2022).

Legend:
[1] = DPPH radical scavenging activity
Procedure: The present experiment used the property that the hydrazyl of diphenylpicrylhydrazyl (DPPH) used in the present experiment has a property of easily accepting a hydrogen atom since the nitrogen atom is unstable, so as to react with the antioxidant material to accept the hydrogen atom to lose its own orthochromatism.
(§1) First, in order to measure DPPH radical scavenging activity of the Fomes fomentarius fraction, 1.9 ml of 0.2 mM DPPH solution (99.5% ethanol) was added to 0.1 ml of solutions (control: 99.5% ethanol) in which the concentrated dried material of each Fomes fomentarius substance was prepared at 7 concentrations of 10, 20, 40, 80, 160, 320 and 640 μg/ml, respectively. The mixture was shaken with a vortex mixer for 10 seconds and then incubated at 37° C. for 30 minutes. Then, the absorbance was measured at 517 nm using a spectrophotometer.
As a positive control drug, L-ascorbic acid was prepared at […] of 10, 20, 40, 80, 160, 320, and 640 μg/mL (99.5% ethanol).
The present inventors measured DPPH radicals scavenging activity in the same manner as in Example <2-2> above using nonadecanone (2-nonadecanone) and docosenol (cis-13-Docosenol) compounds found in the above and Fomes fomentarius CHCl3 fraction of the present disclosure.
as §1, with “Acer tegmentosum maxim extract,” for “Fomes fomentarius fraction,”, “Acer tegmentosum maxim material” for “Fomes fomentarius substance”
As a positive control, L-ascorbic acid was prepared at […] of 10, 20, 40, 80, 160, 320, and 640 μg/mL (99.5% ethanol).
as §1, with “berchemia berchemiaefolia extract,” for “Fomes fomentarius fraction,”, “berchemia berchemiaefolia material” for “Fomes fomentarius substance”
as §1, with “Lithospermum erythrorhizon extract,” for “Fomes fomentarius fraction,”, “Lithospermum erythrorhizon material” for “Fomes fomentarius substance”

xanthine oxidase = xanthine oxidase (Homo sapiens, UniProt P47989); experiment: Xanthine oxidase inhibitory activity; format: biochemical; details: for inhibition at 10 µg/mL: 10 μg/mL; for inhibition at 20 µg/mL: 20 μg/mL; for inhibition at 40 µg/mL: 40 μg/mL; for inhibition at 80 µg/mL: 80 μg/mL; for inhibition at 160 µg/mL: 160 μg/mL; for inhibition at 320 µg/mL: 320 μg/mL; for inhibition at 640 µg/mL: 640 μg/mL
Chain of xanthine oxidase (P47989 whole entry, species assumed): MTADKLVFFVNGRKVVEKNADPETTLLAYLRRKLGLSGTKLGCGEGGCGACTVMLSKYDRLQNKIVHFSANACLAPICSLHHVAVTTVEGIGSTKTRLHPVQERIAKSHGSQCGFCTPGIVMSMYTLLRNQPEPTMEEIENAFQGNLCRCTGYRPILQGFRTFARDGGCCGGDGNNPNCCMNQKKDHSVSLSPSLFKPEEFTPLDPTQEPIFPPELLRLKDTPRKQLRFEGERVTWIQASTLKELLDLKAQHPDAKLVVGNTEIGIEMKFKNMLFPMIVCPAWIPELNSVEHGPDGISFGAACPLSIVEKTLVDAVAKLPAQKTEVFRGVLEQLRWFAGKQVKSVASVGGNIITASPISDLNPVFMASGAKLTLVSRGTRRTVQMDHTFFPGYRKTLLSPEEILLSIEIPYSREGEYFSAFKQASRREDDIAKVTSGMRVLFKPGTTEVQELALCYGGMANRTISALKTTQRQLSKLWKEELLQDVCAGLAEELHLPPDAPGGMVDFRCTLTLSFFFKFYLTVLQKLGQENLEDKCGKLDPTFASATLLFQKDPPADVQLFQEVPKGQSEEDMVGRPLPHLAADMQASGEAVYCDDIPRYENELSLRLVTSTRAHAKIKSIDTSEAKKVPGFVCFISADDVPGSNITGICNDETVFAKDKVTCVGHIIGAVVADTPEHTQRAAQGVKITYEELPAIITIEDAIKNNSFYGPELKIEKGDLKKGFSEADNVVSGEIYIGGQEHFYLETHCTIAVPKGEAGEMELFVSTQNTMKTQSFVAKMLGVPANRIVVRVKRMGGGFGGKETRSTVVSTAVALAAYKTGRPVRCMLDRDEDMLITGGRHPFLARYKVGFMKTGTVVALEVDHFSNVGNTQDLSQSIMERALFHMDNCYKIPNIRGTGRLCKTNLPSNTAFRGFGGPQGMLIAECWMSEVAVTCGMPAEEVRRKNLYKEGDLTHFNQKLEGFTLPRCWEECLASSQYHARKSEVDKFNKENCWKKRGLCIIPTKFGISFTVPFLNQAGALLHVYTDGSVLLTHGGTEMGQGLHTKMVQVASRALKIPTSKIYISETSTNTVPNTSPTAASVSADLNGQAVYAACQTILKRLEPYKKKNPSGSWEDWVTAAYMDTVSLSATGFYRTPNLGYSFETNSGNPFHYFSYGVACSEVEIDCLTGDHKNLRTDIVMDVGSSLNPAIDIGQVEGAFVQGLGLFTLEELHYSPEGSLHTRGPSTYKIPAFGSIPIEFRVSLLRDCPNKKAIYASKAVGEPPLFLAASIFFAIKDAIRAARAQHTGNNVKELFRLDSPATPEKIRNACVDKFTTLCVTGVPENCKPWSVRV
Procedure: 0.2 ml of the substrate solution in which 2 mM xanthine was dissolved was added to 0.1 ml of a sample solution and 0.6 ml of 0.1 M potassium phosphate buffer at pH 7.5, and 0.1 ml of 0.2 unit/ml xanthine oxidase was added thereto, followed by reaction at 37° C. for 5 minutes. Then, 1 ml of 1N HCl was added to terminate the reaction, and then the absorbance of the uric acid produced in the reaction solution was measured at 292 nm. The inhibitory activity of xanthine oxidase was shown by the absorbance reduction rate of the addition group and the non-addition group of the sample solution.
Xanthine oxidase acts as a rate-limiting enzyme in the terminal oxidation of all purines and is an enzyme that acts as a source of oxidizing agents such as superoxide radicals and hydrogen peroxide. The superoxide anion inhibition by xanthine/xanthine oxidase enzymes is shown by superoxide anion scavenging activity and xanthine oxidase inhibition and has biologically important meaning through inhibition of gout and formation of free radicals. The superoxide radical scavenging effects of 10, 20, 40, 80, 160, 320, and 640 μg mL-1 of each fraction extract of the Fomes fomentarius were compared using butylated hydroxy anisole (BHA) as a positive control group.
The superoxide radical scavenging effects of 10, 20, 40, 80, 160, 320, and 640 μg mL-1 of the Acer tegmentosum maxim extract were compared using butylated hydroxy anisole (BHA) as a positive control group.
The superoxide radical scavenging effects of 10, 20, 40, 80, 160, 320, and 640 μg mL-1 of the berchemia berchemiaefolia extract were compared using butylated hydroxy anisole (BHA) as a positive control group.
The superoxide radical scavenging effects of 10, 20, 40, 80, 160, 320, and 640 μg mL-1 of the Lithospermum erythrorhizon extract were compared using butylated hydroxy anisole (BHA) as a positive control group.

NF-κB = experiment: Western blotting of LPS-induced NF-κB phosphorylation in BV2 cells; format: cell-based, mouse
Procedure: BV2 cells were placed in a 6-well plate at 7.5×10^5 cells/well, and stabilized at 37° C. and 5.0% CO2 for 12 hours. After that, LPS and the Fomes fomentarius CHCl3 fractions, the nonadecanone (2-Nonadecanone) or the docosenol (cis-13-Docosenol) compounds were placed according to groups and were incubated for 1 hour. The cell culture was collected and used for cytokine analysis. All the cell culture was removed, and then 1 ml of dPBS was dispensed to each well to wash and remove the wells. 200 μl of the lysis buffer was dispensed per well and the cells attached to the bottom of the well were removed with a cell scriper, and then were slowly mixed and reacted for […] on ice at 4° C. The cells were removed with a scriper again and all the lysis solution was collected. The collected lysis solution was centrifuged at 15,000 rpm for 15 minutes at 4° C. so that only the supernatant was collected. In order to plot standard curves for protein quantification, a standard BSA solution ([…]) and a dilution were prepared in which bradford solution and D.W. were diluted with 4:1. After the bradford dilution was dispensed in each 200 μl to 96-well, the standard BSA solution and the cell lysis supernatant were dispersed in a volume of 10 μl per well, and then they were mixed by pipetting. After 10 minutes, the protein was quantitated by measuring the absorbance at 595 nm in a reader. The subsequent procedures were carried out in the same manner as in the quantitative analysis of the protein of Example 3-3.

Row | Compound | DPPH radical scavenging activity (% antioxidant activity) ([1]; 10 μg/mL) [%] | DPPH radical scavenging activity (% antioxidant activity) ([1]; 20 μg/mL) [%] | DPPH radical scavenging activity (% antioxidant activity) ([1]; 40 μg/mL) [%] | DPPH radical scavenging activity (% antioxidant activity) ([1]; 80 μg/mL) [%] | DPPH radical scavenging activity (% antioxidant activity) ([1]; 160 μg/mL) [%] | DPPH radical scavenging activity (% antioxidant activity) ([1]; 320 μg/mL) [%] | DPPH radical scavenging activity (% antioxidant activity) ([1]; 640 μg/mL) [%] | inhibition at 10 µg/mL (xanthine oxidase) [%] | inhibition at 20 µg/mL (xanthine oxidase) [%] | inhibition at 40 µg/mL (xanthine oxidase) [%] | inhibition at 80 µg/mL (xanthine oxidase) [%] | inhibition at 160 µg/mL (xanthine oxidase) [%] | inhibition at 320 µg/mL (xanthine oxidase) [%] | inhibition at 640 µg/mL (xanthine oxidase) [%] | p-NF-κB/NF-κB ratio (%), expression ratio (vehicle 100%) (NF-κB; 5 μg/ml) | p-NF-κB/NF-κB ratio (%), expression ratio (vehicle 100%) (NF-κB; 20 μg/ml) | p-NF-κB/NF-κB ratio (%), expression ratio (vehicle 100%) (NF-κB; 50 μg/ml) | p-NF-κB/NF-κB ratio (%), expression ratio (vehicle 100%) (NF-κB; 100 μg/ml)
1 | CCCCCCCC/C=C\CCCCCCCCCCCCO [docosenol, cis-13-Docosenol] | 1.3±0.4 | 2.6±0.2 | 5.8±0.6 | 7.7±0.6 | 6.6±0.7 | 8.8±1.1 | 10.6±0.9 | 0.9 ± 0.3 | 2.5 ± 0.5 | 3.6 ± 0.7 | 5.8 ± 1.1 | 7.7 ± 0.9 | 9.6 ± 0.8 | 11.8 ± 1.4 | about 41% | about 28% | about 8% | 
2 | CCCCCCCCCCCCCCCCCC(C)=O [nonadecanone, 2-Nonadecanone] | 5.6±0.9 | 8.9±0.8 | 11.6±1.1 | 13.5±1.4 | 14.6±1.0 | 16.8±2.1 | 20.5±1.8 | 4.1 ± 0.5 | 6.9 ± 0.8 | 12.3 ± 1.1 | 20.5 ± 0.9 | 21.6 ± 0.7 | 24.6 ± 1.1 | 30.8 ± 1.4 | about 35% | about 21% | about 15% | about 12%
